ChEMBL document CHEMBL1201862, “PubChem BioAssay data set” (2004)
Calls of active or inactive are those of the source.

How the values were obtained:
[1] = molecular target: G-protein coupled receptor 55 (Homo sapiens, UniProt Q9Y2T6); assay: inhibition of LPI-stimulated GPR55 beta-arrestin translocation – imaging, U2OS, beta-arrestin-GFP, LPI agonist, primary screen (AID 2013); format: functional;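 further: antagonist potency measured as reduced agonist-driven arrestin aggregation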
[2] = molecular target: Photoreceptor-specific nuclear receptor (Homo sapiens, UniProt Q9Y5X4); format: functional;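 further: potency for compounds that break the NR2E3 corepressor complex and count as activators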
[3] = viability of uninfected HEp-2 cells – cell-based, HTS, cytotoxicity control for RSV inhibitor project, dose response (AID 2410); format: functional; details: human respiratory syncytial virus
[4] = molecular target: Peroxisome proliferator-activated receptor gamma/Nuclear receptor corepressor 2 (Homo sapiens, UniProt P37231+Q9Y618); format: functional
[5] = molecular target: T1, Alkaline phosphatase, tissue-nonspecific isozyme (Homo sapiens, UniProt P05186); assay: activation of tissue-nonspecific alkaline phosphatase – biochemical, TNAP isozyme, human IAP uHTS hits, selectivity assay for human IAP activator project, dose response (AID 488886); format: functional;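 further: potency of compounds raising TNAP activity as a selectivity check on IAP activators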
T1 sequence (P05186 whole entry): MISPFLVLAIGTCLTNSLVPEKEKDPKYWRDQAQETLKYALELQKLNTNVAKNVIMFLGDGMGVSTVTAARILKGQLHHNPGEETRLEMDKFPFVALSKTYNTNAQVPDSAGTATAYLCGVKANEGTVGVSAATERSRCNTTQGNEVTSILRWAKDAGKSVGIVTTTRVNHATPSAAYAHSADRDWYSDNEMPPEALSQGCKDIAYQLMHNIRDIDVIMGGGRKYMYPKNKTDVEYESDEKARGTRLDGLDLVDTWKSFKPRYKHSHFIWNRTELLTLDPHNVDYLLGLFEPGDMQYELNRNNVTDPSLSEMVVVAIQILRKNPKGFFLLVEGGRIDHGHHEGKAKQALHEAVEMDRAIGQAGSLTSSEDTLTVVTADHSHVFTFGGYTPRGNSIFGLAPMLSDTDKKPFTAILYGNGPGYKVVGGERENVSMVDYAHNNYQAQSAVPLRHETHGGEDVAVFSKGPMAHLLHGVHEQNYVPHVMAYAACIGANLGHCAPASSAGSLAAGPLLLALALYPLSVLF

[6] = molecular target: T2, Intestinal-type alkaline phosphatase (Homo sapiens, UniProt P09923); assay: human intestinal alkaline phosphatase activators, dose response, biochemical, luminescence, uHTS hits (AID 463120); format: functional
[7] = molecular target: T2, Intestinal-type alkaline phosphatase; assay: activation of human intestinal alkaline phosphatase – biochemical, luminescent, uHTS hits, set 2, dose response (AID 488817); format: functional;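 further: potency of activators that raise enzyme activity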
[8] = molecular target: T3, Intestinal-type alkaline phosphatase (Mus musculus, UniProt P24822); assay: PubChem AID 488875; format: functional
[9] = molecular target: T4, Type-1 angiotensin II receptor (Homo sapiens, UniProt P30556); assay: agonist activity at AGTR1 – cell-based, uHTS hits, selectivity assay for APJ receptor agonist project, dose response (AID 488865); format: functional;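 further: beta-arrestin recruitment to AT1 measured by enzyme fragment complementation luminescence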
T4 sequence (P30556 whole entry): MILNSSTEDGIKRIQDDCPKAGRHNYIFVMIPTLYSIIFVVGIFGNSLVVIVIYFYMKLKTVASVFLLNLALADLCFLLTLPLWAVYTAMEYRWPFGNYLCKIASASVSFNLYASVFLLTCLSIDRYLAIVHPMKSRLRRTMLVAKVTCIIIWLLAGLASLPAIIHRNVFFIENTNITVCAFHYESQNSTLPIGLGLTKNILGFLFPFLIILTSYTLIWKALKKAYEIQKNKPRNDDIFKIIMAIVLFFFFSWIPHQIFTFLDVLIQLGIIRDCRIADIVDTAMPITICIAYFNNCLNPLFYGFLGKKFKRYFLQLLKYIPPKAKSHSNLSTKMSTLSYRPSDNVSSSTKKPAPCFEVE

[10] = molecular target: T1, Alkaline phosphatase, tissue-nonspecific isozyme; assay: potency against alkaline phosphatase TNAP – biochemical, luminescent, dose response, SAR follow-up (AID 1056)
[11] = molecular target: T1, Alkaline phosphatase, tissue-nonspecific isozyme; assay: activation of tissue-nonspecific alkaline phosphatase – biochemical, TNAP isozyme, mouse IAP uHTS hits, selectivity assay for mouse IAP activator project, dose response (AID 488880); format: functional
[12] = molecular target: Alkaline phosphatase, placental type (Homo sapiens, UniProt P05187); assay: human placental alkaline phosphatase inhibition – biochemical, luminescence, confirmation (AID 1512); format: functional
[13] = molecular target: T5, Rac GTPase-activating protein 1 (Homo sapiens, UniProt Q9H0H5); assay: blockers of MgcRacGAP-driven Rac1 GTP hydrolysis – biochemical, ADP Hunter fluorescence, primary and confirmatory, confirmation (AID 624330); format: functional
T5 sequence (Q9H0H5 whole entry): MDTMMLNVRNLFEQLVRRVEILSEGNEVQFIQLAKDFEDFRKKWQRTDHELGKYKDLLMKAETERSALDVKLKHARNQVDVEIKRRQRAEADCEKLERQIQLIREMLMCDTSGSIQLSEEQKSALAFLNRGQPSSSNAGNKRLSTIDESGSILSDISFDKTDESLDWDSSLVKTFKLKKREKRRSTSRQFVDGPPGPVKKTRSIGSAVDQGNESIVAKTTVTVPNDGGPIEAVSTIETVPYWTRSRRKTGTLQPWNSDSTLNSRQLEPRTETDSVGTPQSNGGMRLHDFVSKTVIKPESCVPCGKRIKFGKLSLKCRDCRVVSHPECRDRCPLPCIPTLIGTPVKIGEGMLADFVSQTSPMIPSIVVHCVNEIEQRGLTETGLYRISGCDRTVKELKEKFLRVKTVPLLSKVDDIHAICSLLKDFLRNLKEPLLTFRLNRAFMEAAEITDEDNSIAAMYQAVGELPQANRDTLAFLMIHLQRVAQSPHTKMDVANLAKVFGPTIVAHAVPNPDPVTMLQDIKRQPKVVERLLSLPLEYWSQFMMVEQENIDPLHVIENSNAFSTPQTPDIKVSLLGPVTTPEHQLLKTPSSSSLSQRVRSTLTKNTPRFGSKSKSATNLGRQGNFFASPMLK

[14] = molecular target: T3, Intestinal-type alkaline phosphatase; assay: mouse intestinal alkaline phosphatase activators, dose response, biochemical, luminescence, uHTS hits (AID 488783); format: functional
[15] = molecular target: T2, Intestinal-type alkaline phosphatase; assay: activation of human intestinal alkaline phosphatase – biochemical, dose response (AID 488873); format: functional
Caspase-6 = molecular target: T6, Caspase-6 (Homo sapiens, UniProt P55212); assay: inhibition of CASP6 peptide cleavage – biochemical, VEID-R110 fluorescence, cherry-pick, dose response (AID 720632)
T6 sequence (P55212 whole entry): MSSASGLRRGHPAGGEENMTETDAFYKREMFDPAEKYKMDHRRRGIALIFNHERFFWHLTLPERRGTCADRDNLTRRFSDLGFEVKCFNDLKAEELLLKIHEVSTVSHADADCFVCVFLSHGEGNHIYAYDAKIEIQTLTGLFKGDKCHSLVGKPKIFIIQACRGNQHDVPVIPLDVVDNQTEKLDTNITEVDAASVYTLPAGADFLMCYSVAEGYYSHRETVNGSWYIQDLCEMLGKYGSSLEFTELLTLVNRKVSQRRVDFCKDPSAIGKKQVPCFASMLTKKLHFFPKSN

Troponin, cardiac muscle = Troponin, cardiac muscle (Homo sapiens, UniProt P19429+P45379+P63316); assay: compounds desensitizing RTF to calcium – biochemical, fluorescence, cardiac regulated thin filaments, triplicate IC50, dose response (AID 504742); format: protein-complex assay
[16] = molecular target: 1-phosphatidylinositol 4,5-bisphosphate phosphodiesterase gamma-1 (Homo sapiens, UniProt P19174); assay: Counterscreen for inhibitors of phospholipase C isozymes (PLC-B3): Fluorescence-based biochemical high throughput dose response assay to identify inhibitors of phospholipase C isozymes (PLC-gamma1).
ORF 73 = molecular target: T7, ORF 73 (Human herpesvirus 8, UniProt O40947); assay: KSHV LANA DNA-binding disruption – biochemical, fluorescence polarization, cherry-picked samples, dose response (AID 504725); parameters: species or system Human gammaherpesvirus 8;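 further: fluorescence polarization of a labeled DNA duplex reporting LANA DNA binding; potency is for inhibitors that block LANA binding to the DNA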
T7 sequence (O40947 whole entry): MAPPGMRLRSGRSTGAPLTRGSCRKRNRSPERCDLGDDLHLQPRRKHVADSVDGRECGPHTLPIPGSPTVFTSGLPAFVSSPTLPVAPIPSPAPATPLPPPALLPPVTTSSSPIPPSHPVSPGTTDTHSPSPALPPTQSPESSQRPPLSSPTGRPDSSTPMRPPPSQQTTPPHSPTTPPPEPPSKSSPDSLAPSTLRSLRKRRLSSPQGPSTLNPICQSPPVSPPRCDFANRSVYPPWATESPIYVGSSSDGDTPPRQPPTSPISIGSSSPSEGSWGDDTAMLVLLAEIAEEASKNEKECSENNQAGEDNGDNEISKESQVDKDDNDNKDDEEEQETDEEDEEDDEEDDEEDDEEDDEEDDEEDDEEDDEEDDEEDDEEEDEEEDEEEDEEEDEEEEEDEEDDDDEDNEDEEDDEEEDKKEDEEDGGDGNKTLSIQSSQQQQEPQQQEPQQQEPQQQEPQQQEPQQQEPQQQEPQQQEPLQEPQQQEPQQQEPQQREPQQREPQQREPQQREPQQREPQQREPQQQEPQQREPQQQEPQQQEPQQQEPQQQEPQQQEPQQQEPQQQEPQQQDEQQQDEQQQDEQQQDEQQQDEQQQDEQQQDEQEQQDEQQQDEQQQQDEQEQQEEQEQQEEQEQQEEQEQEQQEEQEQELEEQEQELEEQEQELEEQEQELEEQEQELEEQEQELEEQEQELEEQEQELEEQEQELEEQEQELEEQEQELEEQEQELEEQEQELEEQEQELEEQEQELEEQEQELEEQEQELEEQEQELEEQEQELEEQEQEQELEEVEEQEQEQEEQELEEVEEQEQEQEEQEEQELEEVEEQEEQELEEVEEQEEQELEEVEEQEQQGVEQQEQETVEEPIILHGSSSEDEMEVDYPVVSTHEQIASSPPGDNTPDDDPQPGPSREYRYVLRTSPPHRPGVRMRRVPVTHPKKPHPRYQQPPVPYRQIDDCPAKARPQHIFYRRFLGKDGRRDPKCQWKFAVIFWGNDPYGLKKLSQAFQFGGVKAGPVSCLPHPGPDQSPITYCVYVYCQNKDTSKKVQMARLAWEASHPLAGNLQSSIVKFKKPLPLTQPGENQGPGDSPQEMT

[17] = molecular target: T8, Long-chain-fatty-acid--AMP ligase FadD28 (Mycobacterium tuberculosis, UniProt P9WQ59); assay: Fluorescence polarization aasay to screen for inhibitors that compete for the binding of FadD28 to a bisubstrate Measured in Biochemical System Using Plate Reader - 2147-01_Inhibitor_Dose_CherryPick_Activity.; format: functional, Mycobacterium tuberculosis H37Rv
T8 sequence (P9WQ59 whole entry): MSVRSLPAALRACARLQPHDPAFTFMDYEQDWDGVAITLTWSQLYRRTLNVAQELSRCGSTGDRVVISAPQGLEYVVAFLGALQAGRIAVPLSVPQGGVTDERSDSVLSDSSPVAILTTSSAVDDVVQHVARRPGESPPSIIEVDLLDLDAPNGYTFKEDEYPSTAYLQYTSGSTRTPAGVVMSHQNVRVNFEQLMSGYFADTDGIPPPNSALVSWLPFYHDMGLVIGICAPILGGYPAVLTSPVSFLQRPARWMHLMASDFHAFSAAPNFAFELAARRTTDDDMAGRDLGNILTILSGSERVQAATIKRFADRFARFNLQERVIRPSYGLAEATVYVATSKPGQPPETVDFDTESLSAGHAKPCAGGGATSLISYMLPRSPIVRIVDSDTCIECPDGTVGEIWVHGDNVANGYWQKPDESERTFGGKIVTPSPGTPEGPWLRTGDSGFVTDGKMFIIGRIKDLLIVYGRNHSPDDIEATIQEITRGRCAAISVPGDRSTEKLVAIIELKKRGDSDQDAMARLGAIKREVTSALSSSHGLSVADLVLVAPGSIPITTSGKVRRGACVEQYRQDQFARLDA

Caspase-7 = Caspase-7 (Homo sapiens, UniProt P55210); assay: caspase-7 enzyme inhibition, selectivity check – biochemical, DEVD-R110 fluorescence, cherry-pick, selectivity assay for caspase-6 inhibitor project, dose response (AID 743295); format: functional
Genome polyprotein = Genome polyprotein (dengue virus type 2, UniProt P29990); assay: flavivirus cap methylation enzyme inhibition – biochemical, confirmation dose response, primary screen (AID 588689); format: functional
[18] = molecular target: T9, Endoribonuclease toxin MazF (Escherichia coli K-12, UniProt P0AE70); assay: activation of MazEF endoribonuclease cleavage – biochemical, fluorescence, single-stranded RNA substrate, uHTS hits, dose response (AID 588481); format: functional
T9 sequence (P0AE70 whole entry): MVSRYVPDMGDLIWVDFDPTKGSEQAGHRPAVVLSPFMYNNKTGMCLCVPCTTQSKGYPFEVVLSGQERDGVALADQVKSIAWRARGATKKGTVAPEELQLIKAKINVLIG

[19] = molecular target: T9, Endoribonuclease toxin MazF; assay: substrate-only fluorescence increase artefacts – biochemical, single-stranded RNase substrate, counter-screen for MazEF activator project, dose response (AID 588502); format: functional
[20] = molecular target: Induced myeloid leukemia cell differentiation protein Mcl-1 (Homo sapiens, UniProt Q07820); format: functional
[21] = molecular target: 1-phosphatidylinositol 4,5-bisphosphate phosphodiesterase beta-3 (Homo sapiens, UniProt Q01970); assay: Fluorescence-based biochemical high throughput dose response assay to identify inhibitors of phospholipase C isozymes (PLC-B3).

T2 sequence (P09923 whole entry): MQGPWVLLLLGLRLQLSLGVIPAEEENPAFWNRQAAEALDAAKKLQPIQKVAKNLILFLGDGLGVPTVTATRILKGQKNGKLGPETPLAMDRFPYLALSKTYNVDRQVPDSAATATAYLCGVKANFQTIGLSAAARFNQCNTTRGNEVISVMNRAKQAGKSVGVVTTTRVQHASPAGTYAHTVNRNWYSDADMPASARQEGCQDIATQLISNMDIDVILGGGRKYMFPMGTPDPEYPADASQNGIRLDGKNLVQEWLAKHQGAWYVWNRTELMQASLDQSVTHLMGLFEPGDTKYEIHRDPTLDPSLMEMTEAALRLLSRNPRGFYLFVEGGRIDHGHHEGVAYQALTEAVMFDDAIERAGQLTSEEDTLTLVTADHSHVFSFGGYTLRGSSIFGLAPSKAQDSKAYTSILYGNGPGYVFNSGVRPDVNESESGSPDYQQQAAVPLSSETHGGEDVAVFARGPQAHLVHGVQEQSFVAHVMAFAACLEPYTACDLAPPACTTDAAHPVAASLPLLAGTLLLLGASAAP
T3 sequence (P24822 whole entry, the tested form may be a part): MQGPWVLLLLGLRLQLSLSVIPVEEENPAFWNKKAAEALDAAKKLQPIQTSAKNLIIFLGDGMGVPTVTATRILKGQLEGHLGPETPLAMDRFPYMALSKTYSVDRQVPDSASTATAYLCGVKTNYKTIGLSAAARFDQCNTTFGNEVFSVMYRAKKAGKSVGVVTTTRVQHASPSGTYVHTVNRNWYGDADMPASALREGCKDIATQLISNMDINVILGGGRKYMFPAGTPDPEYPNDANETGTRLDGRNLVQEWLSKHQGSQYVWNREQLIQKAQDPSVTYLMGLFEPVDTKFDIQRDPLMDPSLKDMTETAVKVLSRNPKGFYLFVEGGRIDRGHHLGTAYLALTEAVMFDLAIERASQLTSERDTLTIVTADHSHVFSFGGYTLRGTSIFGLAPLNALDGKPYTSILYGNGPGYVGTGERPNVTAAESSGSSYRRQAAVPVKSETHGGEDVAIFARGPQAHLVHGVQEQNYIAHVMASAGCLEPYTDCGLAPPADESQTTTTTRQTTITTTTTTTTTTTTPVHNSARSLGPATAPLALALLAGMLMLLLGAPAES
Peroxisome proliferator-activated receptor gamma/Nuclear receptor corepressor 2, sequence (P37231 whole entry): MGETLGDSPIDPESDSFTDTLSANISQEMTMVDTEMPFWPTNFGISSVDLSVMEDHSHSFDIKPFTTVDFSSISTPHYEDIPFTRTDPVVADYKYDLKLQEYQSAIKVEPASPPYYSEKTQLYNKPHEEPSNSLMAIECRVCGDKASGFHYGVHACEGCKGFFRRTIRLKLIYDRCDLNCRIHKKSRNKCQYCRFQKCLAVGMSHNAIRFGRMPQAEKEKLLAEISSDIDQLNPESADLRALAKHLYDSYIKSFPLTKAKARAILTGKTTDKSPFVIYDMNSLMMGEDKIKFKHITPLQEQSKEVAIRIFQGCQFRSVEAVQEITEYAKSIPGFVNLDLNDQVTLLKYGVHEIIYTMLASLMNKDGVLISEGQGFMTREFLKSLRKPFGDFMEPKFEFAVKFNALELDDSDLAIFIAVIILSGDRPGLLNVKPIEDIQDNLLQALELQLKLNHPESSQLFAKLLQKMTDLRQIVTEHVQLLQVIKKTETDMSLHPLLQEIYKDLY
Peroxisome proliferator-activated receptor gamma/Nuclear receptor corepressor 2, sequence (Q9Y618 whole entry): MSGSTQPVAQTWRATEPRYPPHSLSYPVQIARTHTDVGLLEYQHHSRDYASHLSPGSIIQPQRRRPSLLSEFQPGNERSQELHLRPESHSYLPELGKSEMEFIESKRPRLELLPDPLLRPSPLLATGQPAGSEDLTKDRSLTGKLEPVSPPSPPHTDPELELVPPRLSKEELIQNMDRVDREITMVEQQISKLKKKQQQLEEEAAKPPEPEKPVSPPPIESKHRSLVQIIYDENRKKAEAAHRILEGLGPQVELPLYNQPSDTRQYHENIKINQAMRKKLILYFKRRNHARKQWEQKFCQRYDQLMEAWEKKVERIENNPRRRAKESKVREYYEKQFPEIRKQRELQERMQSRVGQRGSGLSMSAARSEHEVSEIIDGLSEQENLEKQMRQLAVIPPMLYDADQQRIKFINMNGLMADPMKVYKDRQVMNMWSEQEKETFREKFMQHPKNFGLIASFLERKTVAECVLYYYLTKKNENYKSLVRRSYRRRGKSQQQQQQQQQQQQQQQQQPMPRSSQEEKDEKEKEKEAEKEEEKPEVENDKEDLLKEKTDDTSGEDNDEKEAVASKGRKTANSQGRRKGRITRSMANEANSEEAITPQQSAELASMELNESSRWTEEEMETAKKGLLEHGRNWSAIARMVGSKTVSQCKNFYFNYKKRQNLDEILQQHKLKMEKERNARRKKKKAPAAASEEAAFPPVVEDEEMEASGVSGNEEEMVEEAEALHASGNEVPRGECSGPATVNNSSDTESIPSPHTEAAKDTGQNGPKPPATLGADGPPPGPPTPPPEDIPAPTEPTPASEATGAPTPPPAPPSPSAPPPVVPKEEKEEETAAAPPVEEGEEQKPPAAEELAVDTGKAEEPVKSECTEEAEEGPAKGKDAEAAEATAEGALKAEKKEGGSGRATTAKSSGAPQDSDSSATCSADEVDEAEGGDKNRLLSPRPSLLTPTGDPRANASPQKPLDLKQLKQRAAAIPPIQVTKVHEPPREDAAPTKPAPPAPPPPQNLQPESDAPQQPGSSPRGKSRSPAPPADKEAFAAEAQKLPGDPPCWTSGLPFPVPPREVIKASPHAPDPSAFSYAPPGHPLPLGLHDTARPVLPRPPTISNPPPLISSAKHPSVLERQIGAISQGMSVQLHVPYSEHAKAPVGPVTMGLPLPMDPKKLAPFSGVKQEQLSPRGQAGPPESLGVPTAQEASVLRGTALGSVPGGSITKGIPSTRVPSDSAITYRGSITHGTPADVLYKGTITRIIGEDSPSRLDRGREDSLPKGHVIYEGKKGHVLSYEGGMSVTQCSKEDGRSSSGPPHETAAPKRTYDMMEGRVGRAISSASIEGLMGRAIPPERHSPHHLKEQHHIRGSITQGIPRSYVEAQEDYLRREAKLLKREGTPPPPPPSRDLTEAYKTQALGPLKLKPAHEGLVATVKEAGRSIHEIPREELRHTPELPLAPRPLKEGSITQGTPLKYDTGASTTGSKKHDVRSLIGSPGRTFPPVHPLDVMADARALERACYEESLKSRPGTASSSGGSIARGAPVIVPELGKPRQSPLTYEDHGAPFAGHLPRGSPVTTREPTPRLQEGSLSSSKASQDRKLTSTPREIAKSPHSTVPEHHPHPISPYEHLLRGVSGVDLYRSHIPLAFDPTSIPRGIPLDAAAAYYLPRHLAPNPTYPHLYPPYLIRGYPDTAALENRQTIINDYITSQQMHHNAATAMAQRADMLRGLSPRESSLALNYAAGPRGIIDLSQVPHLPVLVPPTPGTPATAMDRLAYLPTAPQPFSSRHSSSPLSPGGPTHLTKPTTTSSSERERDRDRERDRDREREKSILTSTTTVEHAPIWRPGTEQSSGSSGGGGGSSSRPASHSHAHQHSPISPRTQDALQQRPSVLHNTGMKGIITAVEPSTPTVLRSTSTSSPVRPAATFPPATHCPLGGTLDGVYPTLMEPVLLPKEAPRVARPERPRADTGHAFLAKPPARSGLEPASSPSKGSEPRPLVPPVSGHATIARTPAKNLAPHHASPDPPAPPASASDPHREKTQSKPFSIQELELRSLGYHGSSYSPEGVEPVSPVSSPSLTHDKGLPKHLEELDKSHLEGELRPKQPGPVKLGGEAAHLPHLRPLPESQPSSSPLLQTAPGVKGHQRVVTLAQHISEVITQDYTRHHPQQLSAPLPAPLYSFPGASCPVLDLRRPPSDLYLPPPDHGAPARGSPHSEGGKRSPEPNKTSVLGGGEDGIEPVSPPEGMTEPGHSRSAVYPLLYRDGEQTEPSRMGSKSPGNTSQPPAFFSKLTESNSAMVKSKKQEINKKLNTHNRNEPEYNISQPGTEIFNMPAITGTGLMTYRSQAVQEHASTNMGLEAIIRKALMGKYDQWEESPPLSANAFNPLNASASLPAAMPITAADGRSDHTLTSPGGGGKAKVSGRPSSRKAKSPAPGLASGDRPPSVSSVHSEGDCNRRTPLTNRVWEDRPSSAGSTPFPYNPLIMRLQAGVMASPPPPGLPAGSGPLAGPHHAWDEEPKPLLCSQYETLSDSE
G-protein coupled receptor 55, sequence (Q9Y2T6 whole entry): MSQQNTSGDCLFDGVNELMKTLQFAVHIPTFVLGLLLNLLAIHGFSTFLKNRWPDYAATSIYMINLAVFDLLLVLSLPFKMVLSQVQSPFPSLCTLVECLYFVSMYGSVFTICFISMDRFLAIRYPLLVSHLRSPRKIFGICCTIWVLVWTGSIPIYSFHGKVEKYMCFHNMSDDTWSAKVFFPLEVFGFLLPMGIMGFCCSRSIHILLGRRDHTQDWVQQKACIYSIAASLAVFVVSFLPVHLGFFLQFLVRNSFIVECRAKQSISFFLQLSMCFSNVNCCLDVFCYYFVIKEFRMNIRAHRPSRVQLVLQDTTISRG
Caspase-7, sequence (P55210 24-198 limits assumed): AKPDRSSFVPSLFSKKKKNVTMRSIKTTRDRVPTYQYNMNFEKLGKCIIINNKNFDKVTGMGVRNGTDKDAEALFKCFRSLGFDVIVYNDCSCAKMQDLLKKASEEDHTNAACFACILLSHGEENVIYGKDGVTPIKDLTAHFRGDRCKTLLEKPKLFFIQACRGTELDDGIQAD
Caspase-7, sequence (P55210 207-303 limits assumed): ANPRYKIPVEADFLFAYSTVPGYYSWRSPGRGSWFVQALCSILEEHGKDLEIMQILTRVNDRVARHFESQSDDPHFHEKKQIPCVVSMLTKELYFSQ
Induced myeloid leukemia cell differentiation protein Mcl-1, sequence (Q07820 whole entry): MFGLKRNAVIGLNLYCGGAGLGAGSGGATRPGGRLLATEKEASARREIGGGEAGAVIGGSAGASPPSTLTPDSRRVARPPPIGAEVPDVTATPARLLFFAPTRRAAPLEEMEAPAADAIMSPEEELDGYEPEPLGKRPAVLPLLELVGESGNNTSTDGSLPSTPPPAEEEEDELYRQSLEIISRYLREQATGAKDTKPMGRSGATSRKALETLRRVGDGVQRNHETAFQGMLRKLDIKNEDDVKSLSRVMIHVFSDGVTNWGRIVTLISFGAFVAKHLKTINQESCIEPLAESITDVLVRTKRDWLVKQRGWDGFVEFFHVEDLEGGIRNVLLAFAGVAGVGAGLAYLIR

## COC(=O)c1cc2c(-c3ccccc3)c(C)c3ccccn3c-2c1C(=O)OC
[1]
  IC50: 2.58 µM (active)
[2]
  IC50: > 1.48 µM (active)
[3]
  CC50: 27 µM (active)
[4]
  IC50: 1.31 µM (active)
cells
  IC50: 23.4 µM (active)

## COc1ccc(OC)c(NC(=O)c2cc(-c3cc(C)ccc3O)n[nH]2)c1
[5]
  EC50: 18.5 µM (active)
[6]
  EC50: 15.1 µM (active)
[7]
  EC50: 20.8 µM (active)
[8]
  EC50: > 100 µM (inactive)

## COC/C=C/C1=CC2=CC(=O)C(C)(OC(=O)c3cnc4ccccc4n3)C(=O)C2=CN1c1ccccc1 (configuration not stated)
[9]
  EC50: > 100 µM (inactive)

## C=CCn1c(SCC(=O)c2ccc(O)c(O)c2)nnc1-c1cccc(OC)c1
[10]
  IC50: 17.4 µM (active)
[11]
  EC50: 68 µM (active)
[12]
  IC50: 5.55 µM (active)
[13]
  IC50: 77.7 µM (active)
[14]
  EC50: 100 µM (inactive)
[15]
  EC50: > 100 µM (inactive)

## O=c1oc2c(cc1O)oc(=O)c1cc(O)c(O)c(O)c12
Caspase-6
  AC50: 0.484 µM (active)
Troponin, cardiac muscle
  IC50: 3.19 µM (active)
[16]
  IC50: > 123 µM (inactive)
ORF 73
  AC50: 18.9 µM (active)
[17]
  AC50: 98.7 µM (active)
Caspase-7
  AC50: 2.35 µM (active)
Genome polyprotein
  IC50: > 100 µM (active)
[18]
  EC50: 80.5 µM (inactive)
[19]
  EC50: > 99 µM (inactive)
[20]
  IC50: > 54 µM (active)
[21]
  IC50: > 123 µM (inactive)
